Data from PMC8776094, “Reactive Oxygen Species Production Is Responsible for Antineoplastic Activity of Osmium, Ruthenium, Iridium and Rhodium Half-Sandwich Type Complexes with Bidentate Glycosyl Heterocyclic Ligands in Various Cancer Cell Models” (International Journal of Molecular Sciences, 2022).

Tests used:
[1] = tested on: A2780 ovarian cancer cells; assay: MTT reduction assay, 4 h, rapid toxicity, A2780; format: cell-based; details: 4 h treatment; for Maximum Inhibition (%) A2780: MTT assay, tested 0.001694-33.3333 µM, ND = not detected or cannot be calculated
Procedure: The compounds were tested between 0.001694 and 33.3333 µM, using a 4-hour-long MTT test to assess rapid toxicity and a 48-hour-long SRB assay to assess the long-term effects of the inhibition of proliferation (cytostasis). The MTT assay assesses the activity of mitochondrial complex I and detects rapid, direct toxicity, as well as indicating apoptosis and necrosis. The SRB assay measures the total protein content that is proportional to cell numbers; therefore, the assay can detect changes in cell numbers and can thus be used as a readout for cell proliferation. The SRB assay was performed after 48 h of treatment (with the exception of L428 cells, which were tested for 96 h due to their slower proliferation rate). In this setting, the SRB assay informs us of long-term changes to cell proliferation. We assessed the maximal inhibition within that concentration range, and descriptive statistics were performed. We performed a one-way ANOVA, followed by the Kruskal–Wallis test, regardless of the normal or non-normal distribution of the data. Due to the large number of significance values, the results of the significance calculations are provided in an Excel spreadsheet at https://figshare.com/s/28d14597d5041f08eb08 (accessed on 6 January 2022), among other primary data of the study. Where possible, nonlinear regression was performed on the curves to determine the IC50 values ((inhibitor) vs. response—variable slope (four parameters) method with Graphpad v8.0.1). […] In Table 5, we added the IC50 values that we determined for a set of 4 active ruthenium half-sandwich complexes we identified previously, to be used in subsequent structure-activity relationship (SAR) analyses.
A2780 cells were cultured in RMPI 1640 medium, supplemented with 10% fetal calf serum, 2 mM glutamine, and 1% penicillin-streptomycin.
The MTT reduction assay measures the activity of mitochondrial complex I and can be used to detect apoptosis and necrosis. The assay was performed similarly to the method used in [72]. Briefly, cells were plated in 96-well plates the day before the assay. Cells were treated with the compounds for 4 h, then MTT was added at 0.5 mg/mL final concentration and the cells were incubated at 37 °C in a cell incubator. The culture media were removed and the reduced MTT dye was dissolved in dimethyl-sulfoxide (DMSO) and plates were measured in a plate photometer (Thermo Scientific Multiscan GO spectrophotometer, Waltham, MA, USA) at 540 nm. On each plate, wells were designed to contain untreated/vehicle-treated cells. In the calculations, the readings for these wells were considered as 1 and all readings were expressed relative to these values.

[2] = tested on: Saos, an osteosarcoma cell line; assay: SRB assay, 48 h, cytostasis, Saos; format: cell-based; details: for IC50 / Saos Max. Inh. (%): SRB assay; for Saos Max. Inh. (%): ND = not detected
Source text: We turned next to assessing whether the cytostatic activity of Os-3, Os-4, Os-5, Os-6 and Ir-6 complexes is specific for ovarian cancer cell lines or if they may be active on other cell lines. To that end, we tested the complexes on another carcinoma cell line (Capan2, a pancreatic adenocarcinoma cell line), on a sarcoma cell line (Saos, an osteosarcoma cell line) and on a lymphoma cell line (L428, a Hodgkin’s lymphoma cell line).
Saos cells were maintained in DMEM (4.5 g/L glucose) medium, supplemented with 10% fetal calf serum, 2 mM glutamine, and 1% penicillin-streptomycin.
The assay was performed similarly to the method used in [73]. Cells were seeded in 96-well plates the day before the assay. Cells were treated with the compounds for 48 h, with the exception of L428, where 96 h of treatment was applied. Cells were fixed with 10% trichloroacetic acid (TCA). Fixed cells were washed in distilled water 3 times, followed by staining with SRB (0.4 m/V% dissolved in 1% acetic acid) for 10 min. The stained cells were washed in 1% acetic acid 5 times; the acetic acid was removed, and the cells were left to dry. Protein-bound SRB was released by adding 100 µL 10 mM Tris base. Plates were measured in a plate photometer (Thermo Scientific Multiscan GO spectrophotometer, Waltham, MA, USA) at 540 nm. On each plate, wells were designed to contain untreated cells. In calculations, the readings for these wells were considered as 1 and all readings were expressed relative to these values.
Statistical analysis was performed using the 8.0.1 version of Graphpad Prism. Values were tested for normal distribution, using the d’Agostino and Pearson normality test. When necessary, values were log-normalized or were normalized using the Box-Cox normalization method or using a two-step transformation, as indicated in the figure captions. Nonlinear regression was performed using the built-in “[Inhibitor] vs. Response—Variable slope (four parameters), least-square fit” utility of Graphpad, yielding the IC50 and Hill slope values.
Here, 1.5 × 10^3 Capan2, 3 × 10^3 Saos cells and 10^4 L428 cells were plated onto 96-well plates. Capan2 and Saos cells were treated with the compounds in the concentrations indicated for 48 h for an SRB assay. L428 cells were treated with the compounds in the concentrations indicated for 96 h, then cells were counted using conventional microscopy and a Burker chamber. Data are represented as average ± SD, from three biological replicates; individual assays were performed in duplicate. Values were normalized for vehicle-treated cells; the absorbance for vehicle-treated cells is equal to 1. A one-way ANOVA, followed by a Kruskal–Wallis test, was performed individually for each compound. The results of the statistical analysis are presented in an Excel spreadsheet at https://figshare.com/s/28d14597d5041f08eb08 (accessed on 6 January 2022). Nonlinear regression was performed on the data.

[3] = Determination of the distribution coefficients (logD), n-octanol/PBS; format: physicochemical; details: n-octanol / PBS pH = 7.40, rt
Procedure: Before starting the experiments, n-octanol was saturated with an aqueous PBS solution (pH = 7.40) and vice versa. A solution of the appropriate complex (approximately 0.2–0.3 mg) in a mixture of 2.50 mL pre-saturated n-octanol and 2.50 mL pre-saturated PBS buffer was made, and the resulting mixture was then vigorously stirred for 3 days at rt. Based on our previous NMR stability experiments, this time is long enough to reach equilibrium among the various ionic complex species. Due to the lipophilic/hydrophilic features of the complexes, those with benzoyl protection could primarily be found in the n-octanol, while the complexes with O-peracetylated and O-deprotected ligands were in the aqueous PBS phase. The corresponding separated solution was centrifuged (ScanSpeed 406G instrument, 4000 RPM for 5 min) and the absorption of the ”stock solution” was determined (VWR UV-1600PC Spectrophotometer, 270–420 nm). Then, 2.00 mL of the stock solution was vigorously stirred with 16.00 mL of pre-saturated n-octanol or PBS solution. After one day had passed, the phases were separated, centrifuged, and the absorption of the solution was measured again. From the absorption difference of the stock solutions, the distribution coefficient (D) was determined using previously described formulae [71].

Compound | Maximum Inhibition (%) A2780 [1] | cytostatic activity on Saos cells (in words) [2] | IC50 [2] | Saos Max. Inh. (%) [2] | LogD [3] | toxicity on A2780 cells in short-term MTT assay (in words) [1]
Cc1ccc(C(C)C)cc1.F[P-](F)(F)(F)(F)F.O=C(OC1COC(c2nnc(-c3ccccn3)o2)C(OC(=O)c2ccccc2)C1OC(=O)c1ccccc1)c1ccccc1.[Cl][Os+] (mixture of isomers) [Os-5] | 31.38% | active on all cell lines | 8.52 µM | 100% | 2.36 | –
Cc1ccc(C(C)C)cc1.F[P-](F)(F)(F)(F)F.O=C(OCC1OC(n2cc(-c3ccccn3)nn2)C(OC(=O)c2ccccc2)C(OC(=O)c2ccccc2)C1OC(=O)c1ccccc1)c1ccccc1.[Cl][Os+] (mixture of isomers) [Os-6] | 21.38% | active on all cell lines | 3.6 µM | 100% | 2.33 | –
Cc1ccc(C(C)C)cc1.F[P-](F)(F)(F)(F)F.O=C(OCC1OC(c2nnc(-c3ccccn3)o2)C(OC(=O)c2ccccc2)C(OC(=O)c2ccccc2)C1OC(=O)c1ccccc1)c1ccccc1.[Cl][Os+] (mixture of isomers) [Os-3] | 37.42% | active on all cell lines | – | 65% | 3.32 | –
Cc1c(C)c(C)[c-](C)c1C.F[P-](F)(F)(F)(F)F.O=C(OCC1OC(n2cc(-c3ccccn3)nn2)C(OC(=O)c2ccccc2)C(OC(=O)c2ccccc2)C1OC(=O)c1ccccc1)c1ccccc1.[Cl][Ir+2] (mixture of isomers) [Ir-6] | 43.07% | active on all cell lines | 2.71 µM | 100% | 2.36 | exerted toxicity in higher concentrations
Cc1ccc(C(C)C)cc1.F[P-](F)(F)(F)(F)F.O=C(OCC1OC(c2nnc(-c3ccccn3)o2)C(OC(=O)c2ccccc2)C(OC(=O)c2ccccc2)C1OC(=O)c1ccccc1)c1ccccc1.[Cl][Os+] (mixture of isomers) [Os-4] | 26.67% | active on all cell lines | 8.78 µM | 100% | 2.87 | –
